Experiment [1] is filed under the species Rana temporaria. In words: Inhibition of cholinergic receptor in frog skeletal muscle at 0.1 uM to 1000 uM.
Experiment [2] relates to CHO-K1. Put plainly: Cytotoxicity against CHOK1 cells. It is filed as functional. The note with it: Cricetulus griseus, read-out: ED50 (the source's name).

In brackets after ≈: the same amount, converted by molar mass. Activity calls are given as the source filed them. No cut-off for these calls is given here.

As for `Nc1ncc(/C=C/CNC(=O)c2ccc[nH]2)[nH]1` [CLATHRODIN], in experiment [1], the result was Active. Also, the EC50 in experiment [2] was 1.33 µg/mL (≈ 5.75 µM).
